Series [1] has as its system CHO, V79, L5178Y/Tk+/−, TK6, HepaRG cells. The following applies: cited from earlier work.
For series [2], the system named is Drosophila. The note with it: cited from earlier work.
For series [3] the following is noted: PC1 most potent, PC5 least potent; ref FDA, 2024a; cited from earlier work.
For series [4] the following is noted: published by FDA as of September 4, 2024, ref FDA, 2024a; cited from earlier work.
For series [5], the system named is Ames tester strains. The following applies: cited from earlier work.
In series [6] the test system is yeast. The note with it: ref Larimer et al., 1980, cited from earlier work.
The subject of series [7] is E. coli WU3610. The note with it: ref Elespuru and Lijinsky, 1976; cited from earlier work.
Series [8] concerns Salmonella typhimurium tester strains TA98, TA100, TA1535, and TA1537, and Escherichia coli strain WP2 uvrA (pKM101). In words: Preincubation Ames test, five tester strains. It counts as cell-based. The following applies: G:C target: TA98, TA100, TA1535, TA1537; A:T target: WP2 uvrA (pKM101).
Series [9] relates to Salmonella typhimurium TA100. In words: Preincubation Ames test, strain TA100. It counts as cell-based. The following applies: for S9-mediated mutagenicity in TA100: with S9 activation. A general note: The Ames test uses bacterial strains that need an amino acid and regain growth without it when mutated back.
Series [10] deals with Salmonella typhimurium TA1535. In words: Preincubation Ames test, strain TA1535. It counts as cell-based. The note with it: for Direct-acting mutagenicity in TA1535: no exogenous metabolic activation (no S9); for S9-mediated mutagenicity in TA1535: with S9 activation.
Series [11] can be described thus: Solubility in Ames test vehicles. It counts as physicochemical.
Setting [12] is: listed as 1-Methyl-4-nitrosopiperizine.
[13] abbreviates: listed as 1-methyl-4-nitrosopiperizine.

We go through 2 compounds from article PMC12395388 (Regulatory toxicology and pharmacology : RTP, 2024).

In the case of `CN1CCN(N=O)CC1` [SM-4, 1-Methyl-4-nitrosopiperazine], in [1] (cell lines as named in the value, ref as given in Table 2 Notes), the “Mutagenicity/genotoxicity in mammalian cells in vitro” value is listed as “Mutagenic in yeast, Drosophila, V79 cells, host-mediated assay”. The “Direct-acting mutagenicity in V79 cells” value in series [1] (only summary results provided, ref Kuroki et al., 1977) is reported as “does not appear to be a direct-acting mutagen”. Also, the “Mutagenicity in Drosophila” value in [2] (ref Nix et al., 1980) is recorded as “Mutagenic in yeast, Drosophila, V79 cells, host-mediated assay”. Besides, the “Recombination in Drosophila” value in [2] (ref Vogel and Nivard, 1993) is given as “recombinogen in Drosophila”. The “CPCA Potency Category (PC)” value in [3] is given as “PC3”. Besides, in series [4], the AI limit is listed as 400 ng/day. Also, the “Ames response (all S9-mediated except where noted)” value in series [5] (published/posted results, ref representative Ames references of Table 2) was “Positive”. For the same compound, the “Ames response with human liver S9” value in series [5] (ref Sabadie et al., 1980) is reported as “Ames positive with human liver S9”. The “Direct-acting mutagenicity in yeast” value in series [6] (only summary results provided) was “does not appear to be a direct-acting mutagen”. In addition, in series [6] (Mehta and Von Borstel, 1984), the Mutagenicity/genotoxicity in yeast entry is listed as “Mutagenic in yeast, Drosophila, V79 cells, host-mediated assay”. For the same compound, in [7], the “Mutagenicity in E. coli WU3610” value was “not mutagenic in E. coli WU3610”. The “Specificity for G:C or A:T target tester strains” value in series [8] is listed as “positive only in G:C detecting strains”. For the same compound, the “Effectiveness of time of preincubation for most effective S9” value in series [9] (strain TA100, 30 vs 60 min) was found to be 60min = 30min; in series [10] (strain TA1535, 30 vs 60 min), 60min = 30min. Also, the “S9-mediated mutagenicity in TA100” value in series [9] (setting [12]) was “strong S9-mediated mutagen”; in series [9] (setting [13]), “strongly positive”. Moreover, the “Direct-acting mutagenicity in TA1535” value in series [10] is recorded as “a Equivocal direct-acting mutagen in TA1535”; in series [10] (setting [12]), “weakly positive direct-acting mutagen in two of four assays”; in [10] (setting [13]), “classified as ‘equivocal’ as a direct-acting mutagen”. Further, the “S9-mediated mutagenicity in TA1535” value was “strong S9-mediated mutagen” in series [10] (setting [12]) and “strongly positive” in series [10] (setting [13]).

For the compound `O=NN1CCN(c2cc3c(cc2F)c(=O)c(C(=O)O)cn3C2CC2)CC1` [NDSRI-24, 1-Cyclopropyl-6-fluoro-7-(4-nitrosopiperazin-1-yl)-4-oxoquinoline-3-carboxylic acid], in series [11], the “Solubility in test vehicles” value is “poorly soluble in all vehicles”.
